We go through 2 compounds from patent publication US10189772B2, “Mixtures of chelating agents including an L-enantiomer-rich MGDA, and process for making such mixtures” (BASF SE, priority 2015, dated 2019).

For series [1] the following is noted: aqueous solution, room temperature; cited from earlier work.
For series [2] the following is noted: ambient temperature, no visible precipitation after 2 weeks. As for the experimental part:
In each case, the solubility was calculated to refer to pure MGDA, without hydrate water.
In addition, the concentrations of the saturated solutions at ambient temperature in dependence of the ee value of MGDA and depending on the concentration of (B) were determined.

Where a name gives a salt, the structure may show the parent alone. Read-outs that look alike come from different tables or passages of the source. Where only a bound is given, the exact number is not on record here.

Consider `CC(C(=O)O)N(CC(=O)O)CC(=O)O` (racemic) [racemic MGDA trisodium salt, methyl glycine diacetic acid], for which the “concentration of solutions that can be made and stored” value in series [1] is listed as “about 40 % by weight”.
Take `CC(C(=O)O)N(CC(=O)O)CC(=O)O` (centres unmarked) [MGDA-Na3, methyl glycine diacetic acid]: the “concentration of saturated solutions” value in series [2] (ee value of MGDA-Na3 11 %, addition of VDA-Na3 5.5 weight-%) was found to be 49 weight-%; in series [2] (ee value of MGDA-Na3 39 %, addition of VDA-Na3 2.8 weight-%) it was 48 weight-%; in series [2] (ee value of MGDA-Na3 39 %, addition of VDA-Na3 5.5 weight-%), 47 weight-%; in series [2] (ee value of MGDA-Na3 39 %, addition of VDA-Na3 8.3 weight-%) it was 43 weight-%; in series [2] (ee value of MGDA-Na3 82 %, addition of VDA-Na3 2.8 weight-%), 58 weight-%; in series [2] (ee value of MGDA-Na3 82 %, addition of VDA-Na3 8.3 weight-%) it was 53 weight-%. Moreover, the “concentration of saturated solutions” value in series [2] (ee value of MGDA-Na3 82 %, addition of VDA-Na3 zero weight-%) is given as 46 weight-%; in series [2] (ee value of MGDA-Na3 96 %, addition of VDA-Na3 5.5 weight-%) it was 57 weight-%; in series [2] (ee value of MGDA-Na3 96 %, addition of VDA-Na3 zero weight-%) it was 49 weight-%; in series [2] (ee value of MGDA-Na3 zero %, addition of VDA-Na3 zero weight-%) it was not above 40 weight-%.
